Assay results taken from patent US8138168B1 (Takeda Pharmaceutical Company Limited, priority 2007, dated 2012).

Target: T1, Recombinant human renin (Homo sapiens, UniProt P00797)
T1 construct: isolate the active form (residues 67-406); made in house; host or cells: FreeStyle 293-F cells (transient expression of pcDNA3.1(+)/hREN)
T1 sequence (P00797 67-406): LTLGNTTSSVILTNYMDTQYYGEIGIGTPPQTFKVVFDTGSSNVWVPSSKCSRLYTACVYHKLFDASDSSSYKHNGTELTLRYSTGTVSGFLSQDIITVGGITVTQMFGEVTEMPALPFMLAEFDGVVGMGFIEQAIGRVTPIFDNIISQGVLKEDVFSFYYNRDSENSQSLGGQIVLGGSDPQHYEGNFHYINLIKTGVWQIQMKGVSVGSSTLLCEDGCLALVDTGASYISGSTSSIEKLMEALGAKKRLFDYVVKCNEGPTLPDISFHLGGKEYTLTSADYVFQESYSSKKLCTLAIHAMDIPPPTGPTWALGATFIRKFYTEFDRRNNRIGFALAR
Assay: In vitro enzymatic activity assay of renin inhibitors (fluorogenic peptide substrate)
Format: biochemical
Details: read-out: IC50 of Exemplified Compounds Against Renin
Procedure: Test compounds in varying concentrations may be reacted with recombinant human renin in the presence of substrate, e.g., QXL520-γ-Abu-[…](HiLyteFluo488)-Arg-OH (Anaspec, San Jose, Calif.). […] Inhibition constants (IC50) may be calculated by non-linear curve fitting of the compound concentrations and fluorescence intensities to the standard IC50 equation.
Solutions of test compounds in varying concentrations mM final concentration) are prepared in dimethyl sulfoxide (DMSO) and then diluted into assay buffer comprising 50 mM Hepes, 1 mM EDTA, 1 mM DTT, 0.1 mg/mL BSA, 0.01% Brij35, pH 7.4. Alternatively, the assay can be performed with a high BSA concentration, wherein the buffer contains an additional 2% BSA.
Recombinant human renin (3 nM final concentration) is added to the dilutions and pre-incubated with the compounds for 10 minutes at 37° C. […] After pre-incubation, the reaction is initiated with of substrate QXL520-γ-Abu-[…](HiLyteFluo488)-Arg-OH (Anaspec, San Jose, Calif.). The final DMSO in the assay is 5%. The total volume of the reaction mixture is 20 μL, which can be placed on Greiner 384-well small volume plates.
The fluorescence intensity is determined upon the addition of substrate and determined again after incubation at 37° C. for one hour. The fluorescence intensity of a blank (no inhibition) using vehicle alone is also determined. Renin activity is linearly proportional to the change in fluorescence observed (final-initial).

Row | IC50 [nM] | Compound
1 | 100 to 1000 | CN1CCOc2cc(-c3ccc(C[C@@H](N)CC(=O)N4CCC[C@@H](c5nc6ccccc6n5CCC(N)=O)C4)cc3)ccc21 [Compound 447, 3-(2-((R)-1-((R)-3-amino-4-(4-(4-methyl-3,4-dihydro-2H-benzo[b][1,4]oxazin-7-yl)phenyl)butanoyl)piperidin-3-yl)-1H-benzo[d]imidazol-1-yl)propanamide]
2 | 100 to 1000 | COCCCn1c([C@@H]2CCCN(C(=O)C[C@H](N)CNC(=O)Nc3cc(C)ccc3OC)C2)nc2ccccc21 [Compound 287, 1-((S)-2-amino-4-((R)-3-(1-(3-methoxypropyl)-1H-benzo[d]imidazol-2-yl)piperidin-1-yl)-4-oxobutyl)-3-(2-methoxy-5-methylphenyl)urea]
3 | 100 to 1000 | COCCCn1c([C@@H]2CCCN(C(=O)C[C@H](N)CNC(=O)c3cc4ccccc4o3)C2)nc2ccccc21 [Compound 263, N-((S)-2-amino-4-((R)-3-(1-(3-methoxypropyl)-1H-benzo[d]imidazol-2-yl)piperidin-1-yl)-4-oxobutyl)benzofuran-2-carboxamide]
4 | < 100 | COCCCn1c([C@@H]2CCCN(C(=O)C[C@H](N)Cc3ccc(-c4ccc[nH]4)cc3)C2)nc2ccccc21 [Compound 153, (R)-4-(4-(1H-pyrrol-2-yl)phenyl)-3-amino-1-((R)-3-(1-(3-methoxypropyl)-1H-benzo[d]imidazol-2-yl)piperidin-1-yl)butan-1-one]
5 | < 100 | COCCCn1c([C@@H]2CCCN(C(=O)C[C@H](N)Cc3ccc(-c4ccc(C(=O)N[C@H](C)CO)cc4)cc3)C2)nc2ccccc21 [Compound 186, 4′-((R)-2-amino-4-((R)-3-(1-(3-methoxypropyl)-1H-benzo[d]imidazol-2-yl)piperidin-1-yl)-4-oxobutyl)-N-((R)-1-hydroxypropan-2-yl)biphenyl-4-carboxamide]
6 | > 1000 | COCCCn1c([C@@H]2CCCN(C(=O)C[C@H](N)CNC(=O)NC3CCCCC3)C2)nc2ccccc21 [Compound 323, 1-((S)-2-amino-4-((R)-3-(1-(3-methoxypropyl)-1H-benzo[d]imidazol-2-yl)piperidin-1-yl)-4-oxobutyl)-3-cyclohexylurea]
7 | > 1000 | O=C(Nc1ccc2c(c1)OCCO2)N1CCCC(c2nc3ccccc3[nH]2)C1 (stereo not drawn) [Compound 15, 3-(1H-benzo[d]imidazol-2-yl)-N-(2,3-dihydrobenzo[b][1,4]dioxin-6-yl)piperidine-1-carboxamide]
8 | 100 to 1000 | COCCCn1c([C@@H]2CCCN(C(=O)[C@@H]3CN(S(=O)(=O)c4cc(Cl)ccc4Cl)C[C@H]3N)C2)nc2ccccc21 [Compound 343, ((3R,4S)-4-amino-1-(2,5-dichlorophenylsulfonyl)pyrrolidin-3-yl)((R)-3-(1-(3-methoxypropyl)-1H-benzo[d]imidazol-2-yl)piperidin-1-yl)methanone]
9 | < 100 | COCCCn1c([C@@H]2CCCN(C(=O)C[C@H](N)Cc3ccc(-c4ccc5c(c4)OCCN5C)cc3)C2)nc2c(F)cccc21 [Compound 453, (R)-3-amino-1-((R)-3-(4-fluoro-1-(3-methoxypropyl)-1H-benzo[d]imidazol-2-yl)piperidin-1-yl)-4-(4-(4-methyl-3,4-dihydro-2H-benzo[b][1,4]oxazin-7-yl)phenyl)butan-1-one]
10 | 100 to 1000 | COCCCn1c(C2CCCN(C(=O)C[C@H](N)Cc3ccc4ccccc4c3)C2)nc2ccc(OC)nc21 (stereo partly drawn) [Compound 100, (R)-3-amino-1-(3-(5-methoxy-3-(3-methoxypropyl)-3H-imidazo[4,5-b]pyridin-2-yl)piperidin-1-yl)-4-(naphthalen-2-yl)butan-1-one]
11 | 100 to 1000 | COCCCn1c([C@@H]2CCCN(C(=O)C[C@H](N)Cc3ccc4ccccc4c3)C2)nc2ccc(Cl)cc21 [Compound 99, (R)-3-amino-1-((R)-3-(6-chloro-1-(3-methoxypropyl)-1H-benzo[d]imidazol-2-yl)piperidin-1-yl)-4-(naphthalen-2-yl)butan-1-one]
12 | 100 to 1000 | COCCCn1c([C@@H]2CCCN(C(=O)C[C@H](N)CNS(=O)(=O)c3ccc(Cl)cc3)C2)nc2ccccc21 [Compound 281, N-((S)-2-amino-4-((R)-3-(1-(3-methoxypropyl)-1H-benzo[d]imidazol-2-yl)piperidin-1-yl)-4-oxobutyl)-4-chlorobenzenesulfonamide]
13 | 100 to 1000 | CC(=O)NCCn1c([C@@H]2CCCN(C(=O)C[C@H](N)Cc3ccc(-c4cnc(N)nc4)cc3)C2)nc2ccccc21 [Compound 450, N-(2-(2-((R)-1-((R)-3-amino-4-(4-(2-aminopyrimidin-5-yl)phenyl)butanoyl)piperidin-3-yl)-1H-benzo[d]imidazol-1-yl)ethyl)acetamide]
14 | > 1000 | N[C@@H](CC(=O)N1CCCC(c2nc3ccccc3[nH]2)C1)c1ccccc1[N+](=O)[O-] (stereo partly drawn) [Compound 26, (3S)-1-(3-(1H-benzo[d]imidazol-2-yl)piperidin-1-yl)-3-amino-3-(2-nitrophenyl)propan-1-one]
15 | < 100 | COCCCn1c([C@@H]2CCCN(C(=O)C[C@H](N)Cc3ccc(-c4ccccc4COC)cc3)C2)nc2ccccc21 [Compound 130, (R)-3-amino-4-(2′-(methoxymethyl)biphenyl-4-yl)-1-((R)-3-(1-(3-methoxypropyl)-1H-benzo[d]imidazol-2-yl)piperidin-1-yl)butan-1-one]
16 | > 1000 | COCCCn1c([C@@H]2CCCN(C(=O)[C@@H]3CN(S(=O)(=O)c4ccccc4C(F)(F)F)C[C@H]3N)C2)nc2ccccc21 [Compound 402, ((3R,4S)-4-amino-1-(2-(trifluoromethyl)phenylsulfonyl)pyrrolidin-3-yl)((R)-3-(1-(3-methoxypropyl)-1H-benzo[d]imidazol-2-yl)piperidin-1-yl)methanone]
17 | < 100 | COCCCn1c([C@@H]2CCCN(C(=O)C[C@H](N)Cc3ccc(-c4ccc5nonc5c4)cc3)C2)nc2ccccc21 [Compound 140, (R)-3-amino-4-(4-(benzo[c][1,2,5]oxadiazol-5-yl)phenyl)-1-((R)-3-(1-(3-metboxypropyl)-1H-benzo[d]imidazol-2-yl)piperidin-1-yl)butan-1-one]
18 | 100 to 1000 | COCCCn1c([C@@H]2CCCN(C(=O)C[C@H](N)c3cccc(C(F)(F)F)c3)C2)nc2ccccc21 [Compound 84, (S)-3-amino-1-((R)-3-(1-(3-methoxypropyl)-1H-benzo[d]imidazol-2-yl)piperidin-1-yl)-3-(3-(trifluoromethyl)phenyl)propan-1-one]
19 | 100 to 1000 | COCCCn1c([C@@H]2CCCN(C(=O)[C@@H]3CN(S(=O)(=O)c4ccc(Cl)cc4)C[C@H]3N)C2)nc2ccccc21 [Compound 370, ((3R,4S)-4-amino-1-(4-chlorophenylsulfonyl)pyrrolidin-3-yl)((R)-3-(1-(3-methoxypropyl)-1H-benzo[d]imidazol-2-yl)piperidin-1-yl)methanone]
20 | > 1000 | CCOC(=O)c1ccccc1NC(=O)NC[C@@H](N)CC(=O)N1CCC[C@@H](c2nc3ccccc3n2CCCOC)C1 [Compound 330, ethyl 2-(3-((S)-2-amino-4-((R)-3-(1-(3-methoxypropyl)-1H-benzo[d]imidazol-2-yl)piperidin-1-yl)-4-oxobutyl)ureido)benzoate]
21 | > 1000 | COCCCn1c([C@@H]2CCCN(C(=O)C[C@H](N)CNC(=O)N3CCOCC3)C2)nc2ccccc21 [Compound 328, N-((S)-2-amino-4-((R)-3-(1-(3-methoxypropyl)-1H-benzo[d]imidazol-2-yl)piperidin-1-yl)-4-oxobutyl)morpholine-4-carboxamide]
22 | 100 to 1000 | CC(=O)Nc1ccc(-c2ccc(C[C@@H](N)CC(=O)N3CCC[C@@H](c4nc5ccccc5n4CCC(N)=O)C3)cc2)cc1 [Compound 486, 3-(2-((R)-1-((R)-4-(4′-acetamidobiphenyl-4-yl)-3-aminobutanoyl)piperidin-3-yl)-1H-benzo[d]imidazol-1-yl)propanamide]
23 | < 100 | COCCCn1c([C@@H]2CCCN(C(=O)C[C@H](N)Cc3ccc(-c4ccc(NC(N)=O)cc4)cc3)C2)nc2ccccc21 [Compound 172, 1-(4′-((R)-2-amino-4-((R)-3-(1-(3-methoxypropyl)-1H-benzo[d]imidazol-2-yl)piperidin-1-yl)-4-oxobutyl)biphenyl-4-yl)urea]
24 | > 1000 | COCCCn1c([C@@H]2CCCN(C(=O)[C@H](Cc3ccccc3)C(N)Cc3ccc(Cl)cc3)C2)nc2ccccc21 (stereo partly drawn) [Compound 240, (R)-3-amino-2-benzyl-4-(4-chlorophenyl)-1-((R)-3-(1-(3-methoxypropyl)-1H-benzo[d]imidazol-2-yl)piperidin-1-yl)butan-1-one]
